{
  "source": "paper PMC11148772",
  "about": "“Inhibition of protein translational machinery in triple-negative breast cancer as a promising therapeutic strategy” (Cell Reports Medicine, 2024)",
  "key": {"[1]": {"test_system": "normal breast epithelial cells MCF10A", "experiment": "MTT cell viability assay", "type": "cell-based", "conditions": "Homo sapiens, MCF-10A, 48 h", "experimental": "(§1) MDA-MB-231 (5000 cells per well), MDA-MB-468 (6000 cells per well), SUM159 (3000 cells per well), 4T1 (2000 cells per well), EMT6 (2000 cells per well), E0771 (3000 cells per well), MCF10A (5000 cells per well) and MCF12A (5000 cells per well) cells were seeded in 96-well culture plates. On the next day, cells were treated with either DMSO or indicated concentrations of SU056 for 48 h 3-(4,5-dimethylthiazol-2-yl)-2,5-diphenyltetrazolium bromide (MTT) (0.5 mg/mL) was dissolved in 1x PBS and 50 μL were added to each well and allowed to form formazan crystals (1–2 h) followed by removal of MTT. Formazan crystals were dissolved in DMSO and plates were scanned at 570nm using a Tecan multimode plate reader.\n(§2) Data S1. SU056 induces cell cycle arrest and apoptotic cell death, related to Figure 1 A) The growth inhibitory effect of SU056 was evaluated using the MTT assay (0.5 mg/ml in 1x PBS). Normal breast epithelial cells (MCF10A and MCF12A) were plated in a 96 well plate. On the next day, cells were treated with vehicle (DMSO) alone or 0.005-50 μM of […]\n(§3) SU056 in fresh medium. […]\n(§4) SU056 treatment led to cell cycle arrest at the G2/M phase and induced cell death in TNBC cells. E) MDA-MB-231 and F) MDA-MB-468 cells were analyzed for cell death using Annexin V-FITC Apoptosis Assay kit. Cell lysates were analyzed for Bax and BCL-2 proteins. b-actin was probed to ensure equal protein loading. […]"}, "[2]": {"test_system": "normal breast epithelial cells MCF12A", "experiment": "MTT cell viability assay", "type": "cell-based", "conditions": "Homo sapiens, MCF-12A, 48 h", "experimental": "as §1, §2, §3, §4"}, "[3]": {"test_system": "pharmacology panel (receptors, channels, transporters, enzymes)", "experiment": "In vitro radioligand binding and enzyme and uptake assay panel", "conditions": "10 μM", "experimental": "The compound SU056 was tested for its radioligand binding and enzyme and uptake characteristics by Eurofins lab services (Eurofins discovery). The screening was performed at 10 μM of SU056. The binding was calculated as % inhibition of the binding of a radioactively labeled ligand specific to each target. The SU056 enzyme inhibition effect was determined as % inhibition of control enzyme activity."}, "[4]": {"molecular_target": "YB-1 (Homo sapiens, UniProt P67809)", "experiment": "Cellular thermal shift assay (CETSA)", "type": "binding", "parameters": "endogenous in cells; host or cells: MDA-MB-231", "conditions": "MDA-MB-231 cells, 1.5 h", "experimental": "MDA-MB-231 cells treated with vehicle control (DMSO) or SU056 were analyzed by CETSA.[53] Cells were grown to 70–80% confluency and then treated with either DMSO (vehicle control) or SU056 (1 μM) for 1.5 h. Cells were then washed twice with PBS and divided into 10 PCR tubes (1 x 10^6 cells/tube in 100 μL PBS). The tubes incubated at different temperatures (37, 41, 44, 47, 50, 53, 56, 59, 63, 67°C) for 3 min in a thermal cycler, followed by 2 min at room temperature. The tubes were snap-frozen in liquid nitrogen, the cells were lysed using a freeze/thaw cycle, and the soluble and insoluble fractions were separated by centrifugation at 14,000 RPM for 30 min at 4°C. […] All samples were analyzed by LC-MS/MS in triplicate.\nA Dionex Ultimate Rapid Separation Liquid Chromatography system (Thermo Fisher Scientific) was used to load 3 μL of the combined TMT-labeled peptides onto a PepMap C18 trap column (Thermo Fisher Scientific) with a flow rate set at 5 μL/min for 10 min. […] The flow rate throughout the gradient was set to 0.3 μL/min and each sample was analyzed in triplicates. Eluted peptides were analyzed using an Orbitrap Eclipse Tribrid mass spectrometer (Thermo Fisher Scientific). […] The most abundant precursor ions were subject to collision induced dissociation (CID) with a collisional energy set to […] and detected in the ion trap using Turbo scan rate. […]"}},
  "data": [
    {"smiles": "O=C1OCC2=C1C(c1cccc(F)c1)c1cc3c(cc1N2CCO)OCO3", "note": "(centres unmarked) [SU056, 9-(3-fluorophenyl)-5-(2-hydroxyethyl)-6,9-dihydro-[1,3]dioxolo[4,5-g]furo[3,4-b]quinolin-8(5H)-one]", "values": [
      {"measurement": "IC50", "setting": "[1]", "value": "4.77 ± 1.61", "unit": "µM"},
      {"measurement": "IC50", "setting": "[2]", "value": "4.65 ± 2.25", "unit": "µM"},
      {"measurement": "effect on major pharmacological parameters (binding and enzyme assays)", "setting": "[3]", "value": "does not affect"},
      {"measurement": "stability of translation-associated proteins (eIFs, RPL, RPS)", "setting": "[4]; 1 μM", "value": "increased the overall stability"},
      {"measurement": "ΔTm at 1 µM", "setting": "[4]", "value": 13.8, "unit": "°C"}
    ]}
  ]
}
